# Assay results: PubChem BioAssay AID743267 (Broad Institute, 2014)
# Tested on: human bronchial epithelial cells, CFTR corrector, plate reader
# Assay: rescue of ΔF508 CFTR function, airway epithelium – human bronchial epithelial cells, plate reader, cherry-pick, two tests, dose response (AID 743267)
# Conditions: measured here: test 2 replicate run
row,Compound,AC50
1,O=C(c1cccc(S(=O)(=O)N2CCOCC2)c1)N1CCCC(C(F)(F)F)C1 (configuration not stated),39.2 µM
2,COc1cc(/C=C2/SC(=S)N(Cc3ccccc3)C2=O)cc(Cl)c1O,12.1 µM
3,CC(=O)Nc1cccc(-c2ccnc3c2CC(C)(C(=O)NCc2cccs2)O3)c1 (configuration not stated),3.3 µM
4,COc1ccc(OC)c(/C(C)=N\NC(=O)c2cc3cc(Cl)ccc3n2C)c1,8.3 µM
5,CCN(CC)c1ccc(/C=N/NC(=O)c2ccco2)c(O)c1,2.3 µM
6,COc1nc(N)nc(NC(=O)c2cccs2)c1N=O,16 µM
7,Cc1ccc(N2C(=O)c3cccc4c([N+](=O)[O-])ccc(c34)C2=O)c2cccnc12,18.8 µM
8,COc1ccc(NC(=O)c2nc(C)c(C3(C)CC(c4cccnc4)=NO3)s2)cc1 (configuration not stated),2.75 µM
9,COc1ccc2cc(CN(CC3CCCO3)C(=S)Nc3ccccc3)c(=O)[nH]c2c1 (configuration not stated),> 50 µM
10,Cc1cc(Nc2ccc(Br)cc2)nc2ccccc12,21.1 µM
11,Cc1ccnc(N2C(=O)c3cccc4c([N+](=O)[O-])ccc(c34)C2=O)c1,6.5 µM
12,COc1ccc2c(c1)sc(N)[n+]2Cc1cc(C)cc2cccnc12,1.04 µM
13,Clc1cccc(-c2ccc(C=Nc3ccc(N4CCOCC4)cc3)o2)c1Cl,> 50 µM
14,O=C(CSC1=NNC(c2ccccn2)S1)Nc1ccccc1 (configuration not stated),> 50 µM
15,CCOC(=O)/C(=C/C=C1\Sc2cc(C)c(C)cc2N1CC)C(C)=O,13.6 µM
16,Nc1[nH]nc2ncc3cc4ccccc4nc3c12,17.7 µM
17,Cn1cc(C(=O)N/N=C/c2ccc3c(c2)OCO3)c2ccccc21,9.88 µM
18,Cc1ccc2c(c1)CCCN2C(=O)CCc1nc2ccccc2c(=O)[nH]1,5.42 µM
19,Cc1nn(S(=O)(=O)c2ccc(Cl)cc2)c(C)c1Sc1ccc([N+](=O)[O-])cc1,> 32 µM
20,CC(C)(C)c1ccc(OCC(=O)Nc2ccc3c4c(cccc24)C(=O)NC3=O)cc1,18.4 µM
21,Cc1c(OCC(=O)NCCN2CCOCC2)ccc2c3c(c(=O)oc12)CCC3,> 50 µM
22,Cc1cccc2c(N=Nc3ccc(S(=O)(=O)Nc4ccc(Cl)cc4)cc3[N+](=O)[O-])c(O)[nH]c12,> 50 µM
23,Cc1ccc(S(=O)(=O)N[C@H](C(=O)OCC(=O)NC(=O)C2CCCCC2)C(C)C)cc1,38.6 µM
24,Cc1cccc(OCCNC(=O)c2ccc(Cl)c(S(=O)(=O)NCc3cccnc3)c2)c1,1.97 µM
25,COc1ccc(OC)c(Nc2nc(-c3sc(NC(=O)C(C)(C)C)nc3C)cs2)c1,2.78 µM
26,CCOC(=O)c1oc2ccc(S(=O)(=O)n3nc(-c4ccccc4)cc3N)cc2c1C,6.82 µM

row,Compound,AC50
1,Cc1ccc(-c2csc3ncn(CC#N)c(=O)c23)cc1C,35.7 µM
2,CCOC1=C2CN(S(=O)(=O)c3ccc(C)cc3)CC[C@@H]2N(S(=O)(=O)c2ccc(C)cc2)[C@H](c2ccccc2)C1,4.47 µM
3,N#C/C(=C\c1ccccn1)c1nc2ccccc2s1,24.2 µM
4,C/C(=N\NC(=O)c1c(Cl)c(C)nn1C)c1ccc(NC(=O)C2CCC2)cc1,1.1 µM
5,COc1ccccc1C1CC(=O)Nc2cc3c(cc21)OCCO3 (configuration not stated),1.96 µM
6,CN(Cc1ccccc1)S(=O)(=O)c1ccc(NC(=S)NC(=O)C2CCCC2)cc1,5.32 µM
7,COc1cccc2c1C(=O)C=C(C)C2=O,15.2 µM
8,Cc1ccc2cc(CN(CC3CCCO3)C(=S)Nc3ccccc3)c(=O)[nH]c2c1C (configuration not stated),3.16 µM
9,COCCCNc1nnc(Cc2ccc(Cl)cc2)c(=O)[nH]1,3.78 µM
10,CC(=O)Nc1ccc(Nc2c3ccccc3nc3ccccc23)cc1,4.6 µM
11,O=S(=O)(c1ccc(Br)cc1)N1CCCc2ccccc21,> 50 µM
12,Cc1cccc(N(C)S(=O)(=O)c2ccc(-c3cc(C)no3)s2)c1,0.738 µM
13,COc1ccc(S(=O)(=O)Nc2cccc3ccc(O)cc23)cc1,6.82 µM
14,CNC(=O)C1CC(=O)N(c2ccc(OCC(=O)Nc3ccccc3)cc2)C1 (configuration not stated),> 50 µM
15,COc1ccc2c(c1)C(O)C(CO)C(C(=O)O)C2 (configuration not stated),9.28 µM
16,CC(Sc1nc2ccccc2c(=O)n1C)C(=O)Nc1ccc2c(c1)OCCO2 (configuration not stated),> 50 µM
17,Cc1noc(C)c1COc1ccc(C(=O)NNC(=O)c2ccccc2)cc1,6.4 µM
18,COc1ccccc1N1CC(C(=O)Nc2ccc(S(=O)(=O)N3CCCC3)cc2)CC1=O (configuration not stated),10.6 µM
19,c1ccc2nc(N3CCNCC3)ccc2c1,> 50 µM
20,COc1ccccc1/C=C/C=N/NC(=O)CCn1cnc2ccccc21,8.01 µM
21,NS(=O)(=O)c1ccc(NNC(=O)c2ccc(Br)o2)c([N+](=O)[O-])c1,8.91 µM
22,O=C1C=C(NCCc2cc(Br)c(O)c(Br)c2)C(=O)c2ncccc21,3.33 µM
23,CCC(=O)NC(c1ccc(C)cc1)c1ccc2cccnc2c1O (configuration not stated),> 50 µM
24,O=C(N/N=C/c1cccs1)c1cc(C2CC2)nc2ccccc12,6.27 µM
25,CC(=NNC(=S)Nc1ccc(C)cc1)c1ccccn1,0.499 µM
26,CO[C@@]12[C@@H]3N[C@@H]3CN1C1=C(C(=O)C(N)=C(C)C1=O)[C@@H]2COC(N)=O,11.5 µM
